Assay results from ChEMBL document CHEMBL4513139, “CO-ADD screening of University of Strathclyde (UK) compounds”.

The molecules below were run on Staphylococcus aureus (assay: microbe, parasite or virus in culture). Conditions: ATCC 43300, 18 h, ASSAY_TEST Inhibition of Bacterial Growth, detection method Absorption (OD600), MEDIA CAMHB, plate type 384well, NBS, CORNING #3640.
Description: Antibacterial activity against Staphylococcus aureus MRSA ATCC 43300 (CO-ADD:GP_020); MIC in CAMBH media, using NBS plates, by OD(600)

Compound | MIC
CC(=O)Nc1cc(C(=O)Nc2cc(C(=O)NCCC(=N)N)n(C)c2)n(C)c1.O=C(O)C(F)(F)F | > 32 µg/mL
Cn1cc(NC(=O)c2cc(NC(=O)c3ccc(/C=C/C4CC4)cc3)cn2C)cc1C(=O)NCCN1CCOCC1.O=C(O)C(F)(F)F | > 32 µg/mL
Cn1cc(NC(=O)c2cc(NC(=O)C(C)(C)C)cn2C)cc1C(=O)NCCC(=N)N.O=C(O)C(F)(F)F | > 32 µg/mL

The next lines start with the values.

MIC | Compound
> 32 µg/mL | Cn1cc(NC(=O)c2ccc(/C=C/c3cnc4ccccc4c3)cc2)cc1C(=O)Nc1nc(C(=O)NCCN2CCOCC2)c(C2CCCCC2)s1.O=C(O)C(F)(F)F.O=C(O)C(F)(F)F
1 µg/mL | COc1ccc(/C=C/c2ccc(C(=O)Nc3cc(C(=O)Nc4cc(C(=O)NCCN5CCC(OC)CC5)n(C)c4)n(C)c3)cn2)cc1.O=C(O)C(F)(F)F.O=C(O)C(F)(F)F
> 32 µM | COc1ccc(/C=C/c2ccc(C(=O)Nc3cc(C(=O)Nc4nc(C(=O)NCCN5CCOCC5)c(C5CCCCC5)s4)n(C)c3)cn2)cc1.O=C(O)C(F)(F)F.O=C(O)C(F)(F)F
> 32 µg/mL | COc1ccc(/C=C/c2ccc(C(=O)Nc3cc(C(=O)Nc4nc(C(=O)NCCN5CCOCC5)c(CCc5ccccc5)s4)n(C)c3)cn2)cc1.O=C(O)C(F)(F)F.O=C(O)C(F)(F)F

What follows are molecules tested on Cryptococcus neoformans (assay: not given). Conditions: not given.

Compound | MIC
CC(=O)Nc1cc(C(=O)Nc2cc(C(=O)NCCC(=N)N)n(C)c2)n(C)c1.O=C(O)C(F)(F)F | > 32 µg/mL
Cn1cc(NC(=O)c2cc(NC(=O)c3ccc(/C=C/C4CC4)cc3)cn2C)cc1C(=O)NCCN1CCOCC1.O=C(O)C(F)(F)F | 32 µg/mL
Cn1cc(NC(=O)c2cc(NC(=O)C(C)(C)C)cn2C)cc1C(=O)NCCC(=N)N.O=C(O)C(F)(F)F | > 32 µg/mL

The remaining lines, values ahead:

MIC | Compound
> 32 µg/mL | Cn1cc(NC(=O)c2ccc(/C=C/c3cnc4ccccc4c3)cc2)cc1C(=O)Nc1nc(C(=O)NCCN2CCOCC2)c(C2CCCCC2)s1.O=C(O)C(F)(F)F.O=C(O)C(F)(F)F
> 32 µg/mL | COc1ccc(/C=C/c2ccc(C(=O)Nc3cc(C(=O)Nc4cc(C(=O)NCCN5CCC(OC)CC5)n(C)c4)n(C)c3)cn2)cc1.O=C(O)C(F)(F)F.O=C(O)C(F)(F)F
> 32 µM | COc1ccc(/C=C/c2ccc(C(=O)Nc3cc(C(=O)Nc4nc(C(=O)NCCN5CCOCC5)c(C5CCCCC5)s4)n(C)c3)cn2)cc1.O=C(O)C(F)(F)F.O=C(O)C(F)(F)F
> 32 µg/mL | COc1ccc(/C=C/c2ccc(C(=O)Nc3cc(C(=O)Nc4nc(C(=O)NCCN5CCOCC5)c(CCc5ccccc5)s4)n(C)c3)cn2)cc1.O=C(O)C(F)(F)F.O=C(O)C(F)(F)F

The molecules below were run on Candida albicans (assay: microbe, parasite or virus in culture). Conditions: ATCC 90028, ASSAY_TEST Inhibition of Fungal Growth, detection method Absorption (OD530), plate type 384well, NBS, CORNING #3640.
Description: Antifungal activity against Candida albicans ATCC 90028 (CO-ADD:FG_001); MIC in YNB media using NBS plates, by OD630

Compound | MIC
CC(=O)Nc1cc(C(=O)Nc2cc(C(=O)NCCC(=N)N)n(C)c2)n(C)c1.O=C(O)C(F)(F)F | > 32 µg/mL
Cn1cc(NC(=O)c2cc(NC(=O)c3ccc(/C=C/C4CC4)cc3)cn2C)cc1C(=O)NCCN1CCOCC1.O=C(O)C(F)(F)F | > 32 µg/mL
Cn1cc(NC(=O)c2cc(NC(=O)C(C)(C)C)cn2C)cc1C(=O)NCCC(=N)N.O=C(O)C(F)(F)F | > 32 µg/mL

The next lines start with the values.

MIC | Compound
> 32 µg/mL | Cn1cc(NC(=O)c2ccc(/C=C/c3cnc4ccccc4c3)cc2)cc1C(=O)Nc1nc(C(=O)NCCN2CCOCC2)c(C2CCCCC2)s1.O=C(O)C(F)(F)F.O=C(O)C(F)(F)F
> 32 µg/mL | COc1ccc(/C=C/c2ccc(C(=O)Nc3cc(C(=O)Nc4cc(C(=O)NCCN5CCC(OC)CC5)n(C)c4)n(C)c3)cn2)cc1.O=C(O)C(F)(F)F.O=C(O)C(F)(F)F
> 32 µM | COc1ccc(/C=C/c2ccc(C(=O)Nc3cc(C(=O)Nc4nc(C(=O)NCCN5CCOCC5)c(C5CCCCC5)s4)n(C)c3)cn2)cc1.O=C(O)C(F)(F)F.O=C(O)C(F)(F)F
> 32 µg/mL | COc1ccc(/C=C/c2ccc(C(=O)Nc3cc(C(=O)Nc4nc(C(=O)NCCN5CCOCC5)c(CCc5ccccc5)s4)n(C)c3)cn2)cc1.O=C(O)C(F)(F)F.O=C(O)C(F)(F)F

These molecules were tested on Klebsiella pneumoniae (assay: microbe, parasite or virus in culture). Conditions: ATCC 700603, 18 h, ASSAY_TEST Inhibition of Bacterial Growth, detection method Absorption (OD600), MEDIA CAMHB, plate type 384well, NBS, CORNING #3640.
Description: Antibacterial activity against Klebsiella pneumoniae MDR ATCC 70063 (CO-ADD:GN_003); MIC in CAMBH media using NBS plates, by OD(600)

Compound | MIC
CC(=O)Nc1cc(C(=O)Nc2cc(C(=O)NCCC(=N)N)n(C)c2)n(C)c1.O=C(O)C(F)(F)F | > 32 µg/mL
Cn1cc(NC(=O)c2cc(NC(=O)c3ccc(/C=C/C4CC4)cc3)cn2C)cc1C(=O)NCCN1CCOCC1.O=C(O)C(F)(F)F | > 32 µg/mL
Cn1cc(NC(=O)c2cc(NC(=O)C(C)(C)C)cn2C)cc1C(=O)NCCC(=N)N.O=C(O)C(F)(F)F | > 32 µg/mL

Second part, the molecule after the results:

MIC | Compound
> 32 µg/mL | Cn1cc(NC(=O)c2ccc(/C=C/c3cnc4ccccc4c3)cc2)cc1C(=O)Nc1nc(C(=O)NCCN2CCOCC2)c(C2CCCCC2)s1.O=C(O)C(F)(F)F.O=C(O)C(F)(F)F
> 32 µg/mL | COc1ccc(/C=C/c2ccc(C(=O)Nc3cc(C(=O)Nc4cc(C(=O)NCCN5CCC(OC)CC5)n(C)c4)n(C)c3)cn2)cc1.O=C(O)C(F)(F)F.O=C(O)C(F)(F)F
> 32 µM | COc1ccc(/C=C/c2ccc(C(=O)Nc3cc(C(=O)Nc4nc(C(=O)NCCN5CCOCC5)c(C5CCCCC5)s4)n(C)c3)cn2)cc1.O=C(O)C(F)(F)F.O=C(O)C(F)(F)F
> 32 µg/mL | COc1ccc(/C=C/c2ccc(C(=O)Nc3cc(C(=O)Nc4nc(C(=O)NCCN5CCOCC5)c(CCc5ccccc5)s4)n(C)c3)cn2)cc1.O=C(O)C(F)(F)F.O=C(O)C(F)(F)F

What follows are molecules tested on Pseudomonas aeruginosa (assay: microbe, parasite or virus in culture). Conditions: ATCC 27853, 18 h, ASSAY_TEST Inhibition of Bacterial Growth, detection method Absorption (OD600), MEDIA CAMHB, plate type 384well, NBS, CORNING #3640.
Description: Antibacterial activity against Pseudomonas aeruginosa ATCC 27853 (CO-ADD:GN_042); MIC in CAMBH media using NBS plates, by OD(600)

Compound | MIC
CC(=O)Nc1cc(C(=O)Nc2cc(C(=O)NCCC(=N)N)n(C)c2)n(C)c1.O=C(O)C(F)(F)F | > 32 µg/mL
Cn1cc(NC(=O)c2cc(NC(=O)c3ccc(/C=C/C4CC4)cc3)cn2C)cc1C(=O)NCCN1CCOCC1.O=C(O)C(F)(F)F | > 32 µg/mL
Cn1cc(NC(=O)c2cc(NC(=O)C(C)(C)C)cn2C)cc1C(=O)NCCC(=N)N.O=C(O)C(F)(F)F | > 32 µg/mL

More lines, now with the values ahead:

MIC | Compound
> 32 µg/mL | Cn1cc(NC(=O)c2ccc(/C=C/c3cnc4ccccc4c3)cc2)cc1C(=O)Nc1nc(C(=O)NCCN2CCOCC2)c(C2CCCCC2)s1.O=C(O)C(F)(F)F.O=C(O)C(F)(F)F
> 32 µg/mL | COc1ccc(/C=C/c2ccc(C(=O)Nc3cc(C(=O)Nc4cc(C(=O)NCCN5CCC(OC)CC5)n(C)c4)n(C)c3)cn2)cc1.O=C(O)C(F)(F)F.O=C(O)C(F)(F)F
> 32 µM | COc1ccc(/C=C/c2ccc(C(=O)Nc3cc(C(=O)Nc4nc(C(=O)NCCN5CCOCC5)c(C5CCCCC5)s4)n(C)c3)cn2)cc1.O=C(O)C(F)(F)F.O=C(O)C(F)(F)F
> 32 µg/mL | COc1ccc(/C=C/c2ccc(C(=O)Nc3cc(C(=O)Nc4nc(C(=O)NCCN5CCOCC5)c(CCc5ccccc5)s4)n(C)c3)cn2)cc1.O=C(O)C(F)(F)F.O=C(O)C(F)(F)F

Each molecule was assayed on HEK293 (assay: cells). Conditions: Homo sapiens, ATCC CRL1573, HEK293; ASSAY_TEST Inhibition of Cell Viability; detection method Resazurin; Fluorescence (ex560/em590); MEDIA DMEM with 10% FBS; plate type 384well; TC; CORNING #3712; time 18 hr; read-out: CC50.
Format: functional, Homo sapiens, ATCC CRL1573

Compound | CC50 [µg/mL]
Cn1cc(NC(=O)c2ccc(/C=C/c3cnc4ccccc4c3)cc2)cc1C(=O)Nc1nc(C(=O)NCCN2CCOCC2)c(C2CCCCC2)s1.O=C(O)C(F)(F)F.O=C(O)C(F)(F)F | > 32
CC(=O)Nc1cc(C(=O)Nc2cc(C(=O)NCCC(=N)N)n(C)c2)n(C)c1.O=C(O)C(F)(F)F | > 32
COc1ccc(/C=C/c2ccc(C(=O)Nc3cc(C(=O)Nc4cc(C(=O)NCCN5CCC(OC)CC5)n(C)c4)n(C)c3)cn2)cc1.O=C(O)C(F)(F)F.O=C(O)C(F)(F)F | 2.7
COc1ccc(/C=C/c2ccc(C(=O)Nc3cc(C(=O)Nc4nc(C(=O)NCCN5CCOCC5)c(C5CCCCC5)s4)n(C)c3)cn2)cc1.O=C(O)C(F)(F)F.O=C(O)C(F)(F)F | 4.56
COc1ccc(/C=C/c2ccc(C(=O)Nc3cc(C(=O)Nc4nc(C(=O)NCCN5CCOCC5)c(CCc5ccccc5)s4)n(C)c3)cn2)cc1.O=C(O)C(F)(F)F.O=C(O)C(F)(F)F | > 32
Cn1cc(NC(=O)c2cc(NC(=O)C(C)(C)C)cn2C)cc1C(=O)NCCC(=N)N.O=C(O)C(F)(F)F | 12.3

These molecules were tested on Escherichia coli (assay: microbe, parasite or virus in culture). Conditions: ATCC 25922, 18 h, ASSAY_TEST Inhibition of Bacterial Growth, detection method Absorption (OD600), MEDIA CAMHB, plate type 384well, NBS, CORNING #3640.
Description: Antibacterial activity against Escherichia coli ATCC 25922 (CO-ADD:GN_001); MIC in CAMBH media using NBS plates, by OD(600)

Compound | MIC
CC(=O)Nc1cc(C(=O)Nc2cc(C(=O)NCCC(=N)N)n(C)c2)n(C)c1.O=C(O)C(F)(F)F | > 32 µg/mL
Cn1cc(NC(=O)c2cc(NC(=O)c3ccc(/C=C/C4CC4)cc3)cn2C)cc1C(=O)NCCN1CCOCC1.O=C(O)C(F)(F)F | > 32 µg/mL
Cn1cc(NC(=O)c2cc(NC(=O)C(C)(C)C)cn2C)cc1C(=O)NCCC(=N)N.O=C(O)C(F)(F)F | > 32 µg/mL

The next lines start with the values.

MIC | Compound
> 32 µg/mL | Cn1cc(NC(=O)c2ccc(/C=C/c3cnc4ccccc4c3)cc2)cc1C(=O)Nc1nc(C(=O)NCCN2CCOCC2)c(C2CCCCC2)s1.O=C(O)C(F)(F)F.O=C(O)C(F)(F)F
> 32 µg/mL | COc1ccc(/C=C/c2ccc(C(=O)Nc3cc(C(=O)Nc4cc(C(=O)NCCN5CCC(OC)CC5)n(C)c4)n(C)c3)cn2)cc1.O=C(O)C(F)(F)F.O=C(O)C(F)(F)F
> 32 µM | COc1ccc(/C=C/c2ccc(C(=O)Nc3cc(C(=O)Nc4nc(C(=O)NCCN5CCOCC5)c(C5CCCCC5)s4)n(C)c3)cn2)cc1.O=C(O)C(F)(F)F.O=C(O)C(F)(F)F
> 32 µg/mL | COc1ccc(/C=C/c2ccc(C(=O)Nc3cc(C(=O)Nc4nc(C(=O)NCCN5CCOCC5)c(CCc5ccccc5)s4)n(C)c3)cn2)cc1.O=C(O)C(F)(F)F.O=C(O)C(F)(F)F

These molecules were tested on Acinetobacter baumannii (assay: microbe, parasite or virus in culture). Conditions: ATCC 19606, 18 h, ASSAY_TEST Inhibition of Bacterial Growth, detection method Absorption (OD600), MEDIA CAMHB, plate type 384well, NBS, CORNING #3640.
Description: Antibacterial activity against Acinetobacter baumannii ATCC 19606 (CO-ADD:GN_034); MIC in CAMBH media using NBS plates, by OD600

Compound | MIC
CC(=O)Nc1cc(C(=O)Nc2cc(C(=O)NCCC(=N)N)n(C)c2)n(C)c1.O=C(O)C(F)(F)F | > 32 µg/mL
Cn1cc(NC(=O)c2cc(NC(=O)c3ccc(/C=C/C4CC4)cc3)cn2C)cc1C(=O)NCCN1CCOCC1.O=C(O)C(F)(F)F | > 32 µg/mL
Cn1cc(NC(=O)c2cc(NC(=O)C(C)(C)C)cn2C)cc1C(=O)NCCC(=N)N.O=C(O)C(F)(F)F | > 32 µg/mL

The next lines start with the values.

MIC | Compound
> 32 µg/mL | Cn1cc(NC(=O)c2ccc(/C=C/c3cnc4ccccc4c3)cc2)cc1C(=O)Nc1nc(C(=O)NCCN2CCOCC2)c(C2CCCCC2)s1.O=C(O)C(F)(F)F.O=C(O)C(F)(F)F
> 32 µg/mL | COc1ccc(/C=C/c2ccc(C(=O)Nc3cc(C(=O)Nc4cc(C(=O)NCCN5CCC(OC)CC5)n(C)c4)n(C)c3)cn2)cc1.O=C(O)C(F)(F)F.O=C(O)C(F)(F)F
> 32 µM | COc1ccc(/C=C/c2ccc(C(=O)Nc3cc(C(=O)Nc4nc(C(=O)NCCN5CCOCC5)c(C5CCCCC5)s4)n(C)c3)cn2)cc1.O=C(O)C(F)(F)F.O=C(O)C(F)(F)F
> 32 µg/mL | COc1ccc(/C=C/c2ccc(C(=O)Nc3cc(C(=O)Nc4nc(C(=O)NCCN5CCOCC5)c(CCc5ccccc5)s4)n(C)c3)cn2)cc1.O=C(O)C(F)(F)F.O=C(O)C(F)(F)F
